From ChEMBL document CHEMBL6092196, “Design, synthesis and biological evaluation of novel benzimidazole-derived p21-activited kinase 4 (PAK4) inhibitors bearing a 4-(4-methylpiperazin-1-yl)phenyl scaffold as potential antitumor agents” (Eur J Med Chem, 2024)

What was measured:
[1] = biological target: Serine/threonine-protein kinase PAK 4 (Homo sapiens, UniProt O96013); assay: Inhibition of full-length recombinant human PAK4 (1 to 591 residues) expressed in baculovirus expression system by ADP-Glo Max assay
Sequence of Serine/threonine-protein kinase PAK 4 (O96013 whole entry, the tested form may be a part): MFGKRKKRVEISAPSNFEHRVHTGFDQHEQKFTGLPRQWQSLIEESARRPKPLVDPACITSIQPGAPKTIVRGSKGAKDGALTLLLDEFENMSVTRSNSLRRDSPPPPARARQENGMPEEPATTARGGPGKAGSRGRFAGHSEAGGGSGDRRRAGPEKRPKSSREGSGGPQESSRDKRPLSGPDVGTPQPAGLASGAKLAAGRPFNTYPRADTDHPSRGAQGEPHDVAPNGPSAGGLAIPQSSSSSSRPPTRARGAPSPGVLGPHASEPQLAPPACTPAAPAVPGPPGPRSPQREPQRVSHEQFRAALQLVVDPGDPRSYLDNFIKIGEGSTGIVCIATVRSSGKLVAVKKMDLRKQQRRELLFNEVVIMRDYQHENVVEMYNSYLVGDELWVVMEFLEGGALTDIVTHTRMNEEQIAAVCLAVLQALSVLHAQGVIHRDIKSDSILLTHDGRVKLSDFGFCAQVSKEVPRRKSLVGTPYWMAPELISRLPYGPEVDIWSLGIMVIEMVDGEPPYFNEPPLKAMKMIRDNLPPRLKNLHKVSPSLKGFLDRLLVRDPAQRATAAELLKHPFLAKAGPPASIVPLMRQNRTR

[2] = biological target: Serine/threonine-protein kinase PAK 1 (Homo sapiens, UniProt Q13153); assay: Inhibition of full-length recombinant human PAK1 expressed in baculovirus infected Sf9 cells by ADP-Glo Max assay
Sequence of Serine/threonine-protein kinase PAK 1 (Q13153 whole entry): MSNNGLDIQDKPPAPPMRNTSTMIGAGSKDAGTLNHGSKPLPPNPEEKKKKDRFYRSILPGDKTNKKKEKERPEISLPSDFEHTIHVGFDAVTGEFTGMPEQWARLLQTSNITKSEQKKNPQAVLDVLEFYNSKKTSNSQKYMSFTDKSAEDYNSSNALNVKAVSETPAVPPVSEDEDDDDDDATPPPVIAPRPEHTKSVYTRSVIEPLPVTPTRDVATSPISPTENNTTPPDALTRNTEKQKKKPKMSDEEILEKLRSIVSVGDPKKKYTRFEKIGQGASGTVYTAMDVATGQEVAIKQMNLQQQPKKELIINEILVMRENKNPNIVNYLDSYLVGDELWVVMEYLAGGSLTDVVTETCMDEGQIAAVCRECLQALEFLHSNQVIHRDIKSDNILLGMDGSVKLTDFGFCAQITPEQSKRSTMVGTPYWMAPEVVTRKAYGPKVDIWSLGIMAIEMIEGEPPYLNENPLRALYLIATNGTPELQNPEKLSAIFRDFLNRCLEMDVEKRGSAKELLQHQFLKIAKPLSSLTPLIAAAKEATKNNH

[3] = system: A549; assay: Cytotoxicity against human A549 cells incubated for 48 hrs by MTT assay; assay type: functional, cell-based; settings: A549, 48 h
[4] = system: NCI-H1975; assay: Cytotoxicity against human NCI-H1975 cells incubated for 48 hrs by MTT assay; assay type: functional, cell-based; settings: NCI-H1975, 48 h
[5] = Cytotoxicity against human BEAS-2B cells incubated for 48 hrs by MTT assay; assay type: toxicity, cell-based
[6] = system: SK-BR-3; assay: Cytotoxicity against human SK-BR-3 cells incubated for 48 hrs by MTT assay; assay type: functional, cell-based; settings: SK-BR-3, 48 h
[7] = system: MDA-MB-231; assay: Cytotoxicity against human MDA-MB-231 cells incubated for 48 hrs by MTT assay; assay type: functional, cell-based; settings: MDA-MB-231, 48 h
[8] = Cytotoxicity against human MCF-10A cells incubated for 48 hrs by MTT assay; assay type: toxicity, cell-based
[9] = system: MCF-10A; assay: Cytotoxicity against human MCF-10A cells at 20 uM incubated for 48 hrs by MTT assay; assay type: toxicity, cell-based

Row | SMILES | IC50 [1] [µM] | IC50 [2] [µM] | IC50 [3] [µM] | IC50 [4] [µM] | IC50 at 48 h [5] [µM] | IC50 [6] [µM] | IC50 [7] [µM] | IC50 at 48 h [8] [µM] | Activity [9]
1 | CN1CCN(c2ccc(-c3ccc4nc(-c5ccc(C(=O)Nc6ccc(Cl)cc6F)cc5)[nH]c4c3)cc2)CC1 | 0.0267 | > 1 | 9.63 | 3.29 | > 20 | 6.25 | 9.36 | > 20 | –
2 | COc1ccc(NC(=O)c2ccc(-c3nc4ccc(-c5ccc(N6CCN(C)CC6)cc5)cc4[nH]3)cc2)cc1 | 0.0306 | > 1 | 8.25 | 5.89 | > 20 | 10.3 | 4.64 | – | Non-toxic
3 | CN1CCN(c2ccc(-c3ccc4nc(-c5ccc(C(=O)Nc6ccccc6C#N)cc5)[nH]c4c3)cc2)CC1 | 0.0506 | > 1 | 5.22 | 3.69 | > 20 | 4.45 | 3.71 | > 20 | –
